# Assay results from patent publication US20220395496A1 (Hoffmann-La Roche Inc., priority 2019, published 2022).
# Target: T1, human TLR8 (Homo sapiens, UniProt Q9NR97)
# T1 sequence (Q9NR97 27-1041): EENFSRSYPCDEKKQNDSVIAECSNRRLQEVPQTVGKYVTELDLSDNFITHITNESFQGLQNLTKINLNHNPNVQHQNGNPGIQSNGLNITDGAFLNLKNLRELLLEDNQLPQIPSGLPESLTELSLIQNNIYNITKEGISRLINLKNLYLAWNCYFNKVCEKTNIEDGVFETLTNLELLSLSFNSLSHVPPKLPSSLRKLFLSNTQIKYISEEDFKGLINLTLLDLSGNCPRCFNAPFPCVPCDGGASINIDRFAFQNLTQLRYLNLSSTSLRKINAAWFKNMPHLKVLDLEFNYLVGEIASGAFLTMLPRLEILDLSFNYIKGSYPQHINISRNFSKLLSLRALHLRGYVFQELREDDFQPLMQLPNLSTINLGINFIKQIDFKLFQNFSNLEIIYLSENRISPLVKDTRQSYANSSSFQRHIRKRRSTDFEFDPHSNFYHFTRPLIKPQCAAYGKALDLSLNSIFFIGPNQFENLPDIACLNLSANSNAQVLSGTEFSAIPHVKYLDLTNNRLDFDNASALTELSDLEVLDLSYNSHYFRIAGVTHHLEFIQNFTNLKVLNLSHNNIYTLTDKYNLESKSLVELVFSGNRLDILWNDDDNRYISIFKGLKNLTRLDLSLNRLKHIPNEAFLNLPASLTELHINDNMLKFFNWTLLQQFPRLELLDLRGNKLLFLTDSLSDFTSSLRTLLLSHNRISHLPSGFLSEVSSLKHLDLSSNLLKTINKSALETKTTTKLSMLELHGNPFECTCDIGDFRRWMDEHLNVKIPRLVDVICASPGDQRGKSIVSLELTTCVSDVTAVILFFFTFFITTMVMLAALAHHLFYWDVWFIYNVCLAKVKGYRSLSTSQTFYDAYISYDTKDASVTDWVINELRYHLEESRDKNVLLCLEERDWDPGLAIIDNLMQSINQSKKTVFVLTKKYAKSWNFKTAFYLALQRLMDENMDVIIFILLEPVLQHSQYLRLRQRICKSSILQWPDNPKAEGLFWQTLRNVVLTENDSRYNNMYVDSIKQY
# Test: HEK293-Blue-hTLR-8 cells assay (SEAP reporter, R848 stimulation)
# Format: cell-based
# Details: HEK293-Blue-hTLR8 cells, R848, 20 hrs; lowest tested concentration 0.0032
# Experimental: The following tests were carried out in order to determine the activity of the compounds of this invention in HEK293-Blue-hTLR-7/8/9 cells assay.
# HEK293-Blue-hTLR-8 Cells Assay:
# A stable HEK293-Blue-hTLR-8 cell line was purchased from InvivoGen (Cat. #: hkb-htlr8, San Diego, Calif., USA). These cells were originally designed for studying the stimulation of human TLR8 by monitoring the activation of NF-κB. A SEAP (secreted embryonic alkaline phosphatase) reporter gene was placed under the control of the IFN-β minimal promoter fused to five NF-κB and AP-1-binding sites. The SEAP was induced by activating NF-κB and AP-1 via stimulating HEK-Blue hTLR8 cells with TLR8 ligands. Therefore the reporter expression was declined by TLR8 antagonist under the stimulation of a ligand, such as R848, for incubation of 20 hrs. The cell culture supernatant SEAP reporter activity was determined using QUANTI-Blue™kit (Cat. #: rep-qb1, Invivogen, San Diego, Calif., USA) at a wavelength of 640 nm, a detection medium that turns purple or blue in the presence of alkaline phosphatase.
# HEK293-Blue-hTLR8 cells were incubated at a density of […] cells/mL in a volume of 170 μL in a 96-well plate in Dulbecco's Modified Eagle's medium (DMEM) containing 4.5 g/L glucose, 50 U/mL penicillin, […], […], 2 mM L-glutamine, 10% (v/v) heat-inactivated fetal bovine serum with addition of 20 μL test compound in a serial dilution in the presence of final DMSO at 1% and 10 μL of 60 uM R848 in above DMEM, perform incubation under 37° C. in a CO2 incubator for 20 hrs. Then 20 μL of the supernatant from each well was incubated with 180 μL Quanti-blue substrate solution at 37° C. for 2 hrs and the absorbance was read at 620˜655 nm using a spectrophotometer. The signalling pathway that TLR8 activation leads to downstream NF-κB activation has been widely accepted, and therefore similar reporter assay was modified for evaluating TLR8 antagonist.
row,IC50,SMILES
1,< 3.2 nM,"C[C@H]1C[C@@H](NCc2ccc3c(n2)CCNC3)CN(c2ccc(C#N)c3ncccc23)C1 [Example 30, 5-[(3S,5R)-3-methyl-5-(5,6,7,8-tetrahydro-1,6-naphthyridin-2-ylmethylamino)-1-piperidyl]quinoline-8-carbonitrile]"
2,9 nM,"C[C@H]1C[C@@H](NCc2cccc(N3CCNCC3)c2)CN(c2ccc(C#N)c3ncccc23)C1 [Example 8, 5-[(3S,5R)-3-methyl-5-[(3-piperazin-1-ylphenyl)methylamino]-1-piperidyl]quinoline-8-carbonitrile]"
3,10 nM,"Cc1cc(-c2ccc(CN[C@@H]3C[C@H](C)CN(c4ccc(C#N)c5ncccc45)C3)cc2)cc(C)n1 [Example 15, 5-[(3R,5S)-3-[[4-(2,6-dimethyl-4-pyridyl)phenyl]methylamino]-5-methyl-1-piperidyl]quinoline-8-carbonitrile]"

row,SMILES,IC50
1,"C[C@H]1C[C@@H](NCc2ccccc2)CN(c2ccc(C#N)c3ncccc23)C1 [Example R1, reference compound]",20 nM
